# Measurements reported in paper PMC6227957, “Peptides derived from cadherin juxtamembrane region inhibit platelet function” (Royal Society Open Science, 2018).
# Experiments:
# [1] = tested on: washed human platelets; assay: Platelet ATP secretion, luminescence-based assay; type: cell-based; conditions: for Platelet ATP secretion induced by peptide alone (basal, no agonist) / Effect on TRAP-induced platelet ATP secretion: 50 µM peptide, washed human platelets; for Platelet ATP secretion induced by peptide alone (basal, no agonist): 12 min at 37°C, without TRAP, n = 6, figure 2; for Effect on TRAP-induced platelet ATP secretion: preincubated 12 min at 37°C, then 4 µM TRAP for 3 min, luminescence arb. units, figures 2, 3c,d; for Effect on TRAP-induced platelet ATP secretion, alanine scan and control peptides of KEPLLP: 12.5 µM peptide, n = 4 donors, figure 5a,b
# Method: Washed platelets (WPs) were prepared from blood samples collected from healthy donors who were free of medications known to affect platelet function for at least 10 days, as previously described. Written, informed consent was obtained from all participants in line with the Declaration of Helsinki. In brief, venous blood was drawn into 15% (v/v) of acid-citrate-dextrose (ACD) anticoagulant (38 mM citric acid anhydrous, 75 mM sodium citrate, 124 mM dextrose). Blood was centrifuged at 150g for 10 min and the platelet-rich plasma (PRP) was collected. PRP was further centrifuged at 720g for 10 min in the presence of 1 µM prostaglandin E1 (PGE1). The platelet pellet was resuspended in buffer A (6 mM dextrose, 130 mM NaCl, 9 mM NaHCO3, 10 mM sodium citrate, 10 mM Tris base, 3 mM KCl, 0.81 mM KH2PO4 and 0.9 mM MgCl2·6H2O, pH 7.4). The washed platelet count was adjusted to 3 × 10^8 platelets ml^−1 and supplemented with 1.8 mM CaCl2 immediately prior to use.
# ATP secretion was measured using a luminescence-based assay, as previously described. Peptides, buffer or vehicle control, in a final volume of 10 µl, were dispensed into white 96-well plates. To this, 70 µl of WPs were gently added. Platelets were incubated with peptides at 37°C for 12 min (under shaking) in the Perkin Elmer 1420 96-well plate reader. Platelet agonist (TRAP; 4 µM; 10 µl) was then added to induce platelet ATP secretion. The suspension (peptide + platelets + agonist) was incubated for 3 min at 37°C with constant shaking. Finally, 10 µl of ATP detecting reagent chronolume (Labmedics, UK) was dispensed into each well and luminescence was measured using the Perkin Elmer 1420 96-well plate reader. Platelet ATP secretion response to peptides was measured in the presence and absence of agonist. Data were expressed as the amount of ATP secretion in luminescence arbitrary units (arb. units). Data are represented as the mean ± standard error mean (s.e.m.) of at least four independent donors.
# [2] = tested on: washed human platelets; assay: Platelet ATP secretion, luminescence-based assay; type: cell-based; conditions: TRAP 0.25 to 16 µM for 3 min at 37°C; n = 4 donors; figure S1
compound,measurement,setting,value
"CCCCCCCCCCCCCCCC(=O)NCCCOCCOCCOCCCNC(=O)CCC(N)=O [palmitic acid connected to a Ttds linker, reference compound]","Platelet ATP secretion induced by peptide alone (basal, no agonist)",[1],no effect
same,Effect on TRAP-induced platelet ATP secretion,[1]; n = 6 donors,no effect
"CCCCCCCCCCCCCCCC(=O)O [palmitic acid, reference compound]","Platelet ATP secretion induced by peptide alone (basal, no agonist)",[1],no effect
same,Effect on TRAP-induced platelet ATP secretion,[1]; n = 6 donors,no effect
"EEPLLP [KEPLLP with lysine replaced with glutamic acid, palmitoylated and amidated]","Effect on TRAP-induced platelet ATP secretion, alanine scan and control peptides of KEPLLP",[1]; 4 µM TRAP,loss of inhibitory effect
"EKPLLP [N-terminus reverse charge peptide of KEPLLP, palmitoylated and amidated]","Effect on TRAP-induced platelet ATP secretion, alanine scan and control peptides of KEPLLP",[1]; 4 µM TRAP,retained partial inhibitory activity
"KEPAAP [KEPLLP with LL replaced with AA, palmitoylated and amidated]","Effect on TRAP-induced platelet ATP secretion, alanine scan and control peptides of KEPLLP",[1]; 4 µM TRAP,loss of peptide activity
"KEPLAP [KEPLLP with one leucine replaced with alanine, palmitoylated and amidated]","Effect on TRAP-induced platelet ATP secretion, alanine scan and control peptides of KEPLLP",[1]; 4 µM TRAP,loss of peptide activity
"KEPLLP [Non-palmitoylated KEPLLP, KEPLLP peptide with no palmitoylation]",Effect of peptide with no palmitoylation on TRAP-induced platelet ATP secretion,"[1]; 50 µM peptide for 12 min at 37°C before 4 µM TRAP, n = 4, figure S4",failed to inhibit
"KEPLLP [short motif truncated from E-cad 2, N-terminally palmitoylated and C-terminally amidated]",Effect of truncated E-cad 2 peptides on TRAP-induced platelet ATP secretion,"[1]; 4 µM TRAP, n = 6 donors, figure 4a",most potent inhibitor
same,Lowest peptide concentration that significantly inhibited TRAP-induced platelet ATP secretion,"[1]; dose-response study, 4 µM TRAP, n = 4, figure 4b",12.5 µM
"PLLPKE [randomly scrambled peptide of KEPLLP, palmitoylated and amidated]","Effect on TRAP-induced platelet ATP secretion, alanine scan and control peptides of KEPLLP",[1]; 4 µM TRAP,failed to inhibit
"SFLLRN [TRAP, reference compound]",TRAP concentration at which ATP secretion is maximal,[2],16 µM
same,ATP secretion response at 4 µM TRAP relative to the maximal response,"[1]; 4 µM TRAP, figure S1",approximately 80%
